Results reported in patent US10265329B2, “Altering steroid metabolism for treatment of steroid-dependent disease” (THE CLEVELAND CLINIC FOUNDATION, priority 2015, dated 2019).

Columns and labels:
[1] = patients; wide interpatient variability; cited from earlier work
CYP17A1 = target: T1, CYP17A1 (Homo sapiens, UniProt P05093); experiment: Conversion of [3H]-pregnenolone to DHEA in 293 cells expressing CYP17A1; format: cell-based; conditions: 1 nM drug; 3 h incubation; vehicle 70.1%
T1 construct: expressed in transfected cells
T1 sequence (P05093 1-508): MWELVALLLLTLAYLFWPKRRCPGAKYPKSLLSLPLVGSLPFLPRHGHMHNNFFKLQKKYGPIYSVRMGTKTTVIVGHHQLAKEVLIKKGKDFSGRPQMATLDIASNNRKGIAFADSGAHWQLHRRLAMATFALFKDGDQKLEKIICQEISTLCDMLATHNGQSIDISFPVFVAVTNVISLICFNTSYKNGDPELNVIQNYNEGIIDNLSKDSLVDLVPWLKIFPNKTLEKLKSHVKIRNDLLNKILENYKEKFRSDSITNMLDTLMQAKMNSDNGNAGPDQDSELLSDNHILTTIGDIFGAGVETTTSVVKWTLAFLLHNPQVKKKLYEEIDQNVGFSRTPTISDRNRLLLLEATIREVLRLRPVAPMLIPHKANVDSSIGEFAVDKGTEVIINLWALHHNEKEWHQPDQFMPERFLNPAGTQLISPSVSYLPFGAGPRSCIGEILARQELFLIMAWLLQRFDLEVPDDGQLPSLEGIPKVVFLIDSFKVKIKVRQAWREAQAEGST
Description: LNCaP and VCaP cells were purchased from the American Type Culture Collection (Manassas, Va.) and maintained in RPMI-1640 with 10% FBS. LAPC4 cells were kindly provided by Dr. Charles Sawyers (Memorial Sloan Kettering Cancer Center, New York, N.Y.) and grown in Iscove's Modified Dulbecco's Medium with 10% FBS. C4-2 cells were kindly provided by Dr. Leland Chung (Cedars-Sinai Medical Center, Los Angeles, Calif.) and maintained in RPMI-1640 with 10% FBS. All experiments done with LNCaP and VCaP were done in plates coated with poly-DL-ornithine (Sigma-Aldrich, St. Louis, Mo.). A 293 cell line stably expressing human CYP17A1 was generated by transfection with plasmid pcDNA3-CYP17 (a generous gift of Dr. Walter Miller, University of California, San Francisco) and selection with G418. Cell lines was authenticated by DDC Medical (Fairfield, Ohio) and determined to be […] mycoplasma free with primers.
Cell Line Metabolism: Cells were seeded and incubated in 12-well plates with 0.2 million cells/well for ˜24 h and then incubated with a mixture of radioactive ([^3H]-labeled) and non-radioactive androgens (final concentration, 100 nM; ˜1,000,000 cpm/well; PerkinElmer, Waltham, Mass.) at 37° C. Aliquots of medium were collected at the indicated times. Collected medium was treated with 1,000 units of β-glucuronidase (Helix pomatia; Sigma-Aldrich) at 65° C. for 2 h, extracted with 860 μL ethyl acetate:isooctane (1:1), and concentrated under nitrogen gas. Xenograft Metabolism: 10^7 LNCaP or VCaP cells were injected subcutaneously with Matrigel into surgically orchiectomized NSG mice that were implanted with 5 mg 90-day sustained-release DHEA pellets (Innovative Research of American, Sarasota, Fla.). Xenografts were harvested when they reached 1000 mm^3, minced, and cultured in DMEM with 10% FBS at 37° C. with mixture of radioactive ([^3H]-labeled) and non-radioactive androgens, or Abi, when they reached 1000 mm^3. Each xenograft was analyzed in triplicate in at least three independent experiments. Aliquots of medium were collected at the indicated times. […]
Dried samples were reconstituted in 50% methanol and injected into the HPLC. […] Alternatively, dried samples were applied to plastic-backed silica gel plates and separated by thin-layer chromatography (TLC) using a mobile phase of 3:1 chloroform:ethyl acetate, followed by exposure of the plates to a phosphorimager screen and quantitated with a Storm model 860 phosphorimager (Applied Biosystems, Foster City, Calif.). […]
Cell lines, drugs and constructs. […] Cell lines were authenticated by DDC Medical (Fairfield, Ohio) and determined to be mycoplasma free with primers. […]

[2] = Phase II clinical trial NCT01393730: serum Abi metabolites before and after dutasteride; format: in vivo, human
Procedure: Twelve patients with CRPC undergoing treatment with Abi acetate at Cleveland Clinic were consented under an Institutional Review Board—approved protocol (Case 7813). Blood was collected using Vacutainer Plus serum blood collection tubes (#BD367814, Becton Dickenson, Franklin Lakes, N.J.), between 1 and 16 hours after the 1000 mg daily dose of Abi acetate was administered, and allowed to clot. Tubes were centrifuged at 2500 RPM or 1430×g for 10 minutes. Serum aliquots were frozen at −80° C. until processing. To study the effect of dutasteride on Abi metabolism, serum samples were collected from patients treated on a phase II clinical trial at Dana-Farber Cancer Institute (NCT01393730). Each patient received Abi acetate (1,000 mg daily) plus prednisone (5 mg daily) for 2 cycles (8 weeks) and then additional treatment with dutasteride ([…]) was initiated. Samples were collected on treatment with Abi alone and after addition of dutasteride (start of cycles 3, 4 and 7). Seventeen patients treated at this institution on this clinical trial had blood available from all 3 time points. One patient had Abi concentrations that were under the limit of detection and was later determine to have stopped treatment because of adverse effects and was therefore not included in the analysis. Drug metabolites and internal standard (d4-abiraterone, Toronto Research Chemicals Inc, Ontario Canada) were extracted from 100 μL of patient serum with methyl tert-butyl ether (Sigma Aldrich, St. Louis, Mo.), evaporated under a stream of nitrogen gas and reconstituted in methanol:water (50:50) prior to mass spectrometry analysis. Standard curves were generated using human serum spiked with known concentrations of each metabolite to enable determination of unknown concentrations in patient samples
Samples were analyzed on a ultra high-performance liquid chromatography station (Shimadzu, Kyoto, Japan) with a DGU-20A3R degasser, 2 LC-30AD pumps, a SIL-30AC autosampler, a CTO-10A column oven and a CBM-20A system controller in tandem with a QTRAP 5500 mass spectrometer (AB Sciex, Framingham, Mass.). Drug metabolites were ionized using electrospray ionization in positive ion mode. Multiple reaction monitoring was used to follow mass transitions for Abi, IS, and the metabolites (Table 1). Due to the similarity in structure and mass transitions for the metabolites it was necessary to separate them with chromatography. Separation of drug metabolites was achieved using a mobile phase consisting of LC-MS grade (Fisher) methanol: acetonitrile: water:formic acid (39:26:34:1) at a flow rate of 0.2 ml/min., and C18 analytical column; Zorbax Eclipse plus 150×2.1 mm, 3.5 μm (Agilent, Santa Clara, Calif.).

SRD5A1 = target: T2, SRD5A1 (Homo sapiens, UniProt P18405); conditions: LAPC4 cells
T2 sequence (P18405 1-259): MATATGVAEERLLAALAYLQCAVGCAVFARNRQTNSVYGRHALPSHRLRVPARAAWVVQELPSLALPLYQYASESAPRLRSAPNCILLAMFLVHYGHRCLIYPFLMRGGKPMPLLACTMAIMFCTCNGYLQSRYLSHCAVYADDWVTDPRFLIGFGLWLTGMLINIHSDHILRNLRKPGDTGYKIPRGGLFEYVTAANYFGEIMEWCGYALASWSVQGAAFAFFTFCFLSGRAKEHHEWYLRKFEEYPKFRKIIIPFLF
Procedure: Cell Line Metabolism: 0.2 million/ml cells were seeded and incubated in 12-well plates for ˜24 h before incubation with the indicated drugs or a mixture of [^3H]-labeled (˜1,000,000 cpm/well; PerkinElmer, Waltham, Mass.) and non-radioactive androgens (final concentration, 100 nM) at 37° C. Collected medium was treated with β-glucuronidase (Helix pomatia; Sigma-Aldrich), extracted with ethyl acetate:isooctane (1:1), and concentrated under nitrogen gas as described.
Dried samples were reconstituted in 50% methanol and separated on Kinetex 100×2.1 mm, 2.6 μm particle size C18 reverse-phase column (Phenomenex, Torrance, Calif.) using a methanol/water gradient at 30° C. The column effluent was analyzed using a 254 nm UV-visible detector or β-RAM model 3 in-line radioactivity detector (IN/US Systems, Inc.) using Liquiscint scintillation cocktail (National Diagnostics, Atlanta, Ga.). All HPLC studies were conducted in triplicate and repeated at least 3 times in independent experiments. Results are shown as mean±SD.

LNCaP cells = experiment: Cell proliferation assay, DHT-stimulated growth; format: cell-based, human; conditions: DHT 0.5 nM, 2, 4 and 6 days
Procedure: LNCaP cells (0.1 million/mL) were seeded in 96-well plates and cultured in phenol red free RPMI-1640 mediums plus 10% charcoal stripped FBS with androgens and/or drugs. Medium was changed every other day. After 2, 4 or 6 days, cells were collected and lysed after treatment. Growth was then determined based on DNA content as detected by Hoechst stain and a Wallac Victor2 1420 Multilabel counter (Perkin Elmer). Two-tailed student's t-test was used to determine significance.

SRD5A = target: T3, SRD5A (Homo sapiens, UniProt P18405); experiment: Conversion of [3H]-AD to 5α-reduced androgens in LAPC4 cells; format: cell-based; conditions: up to 100 μM; LAPC4 cells
T3 construct: endogenous in cells; host or cells: LAPC4
T3 sequence (P18405 1-259): T2 sequence (P18405 1-259)
Procedure: Cell Line Metabolism: Cells were seeded and incubated in 12-well plates with 0.2 million cells/well for ˜24 h and then incubated with a mixture of radioactive ([^3H]-labeled) and non-radioactive androgens (final concentration, 100 nM; ˜1,000,000 cpm/well; PerkinElmer, Waltham, Mass.) at 37° C. Aliquots of medium were collected at the indicated times. Collected medium was treated with 1,000 units of β-glucuronidase (Helix pomatia; Sigma-Aldrich) at 65° C. for 2 h, extracted with 860 μL ethyl acetate:isooctane (1:1), and concentrated under nitrogen gas. Xenograft Metabolism: 10^7 LNCaP or VCaP cells were injected subcutaneously with Matrigel into surgically orchiectomized NSG mice that were implanted with 5 mg 90-day sustained-release DHEA pellets (Innovative Research of American, Sarasota, Fla.). Xenografts were harvested when they reached 1000 mm^3, minced, and cultured in DMEM with 10% FBS at 37° C. with mixture of radioactive ([^3H]-labeled) and non-radioactive androgens, or Abi, when they reached 1000 mm^3. Each xenograft was analyzed in triplicate in at least three independent experiments. Aliquots of medium were collected at the indicated times. Collected medium was treated with 1,000 units of β-glucuronidase at 65° C. for 2 h, extracted with 860 μL ethyl acetate:isooctane (1:1), and concentrated under nitrogen gas.
Dried samples were reconstituted in 50% methanol and injected into the HPLC. Steroids and drug metabolites were separated on Kinetex 100×2.1 mm, 2.6 μm particle size C18 reverse-phase column (Phenomenex, Torrance, Calif.) using a methanol/water gradient at 30° C. […] Alternatively, dried samples were applied to plastic-backed silica gel plates and separated by thin-layer chromatography (TLC) using a mobile phase of 3:1 chloroform:ethyl acetate, followed by exposure of the plates to a phosphorimager screen and quantitated with a Storm model 860 phosphorimager (Applied Biosystems, Foster City, Calif.). […] Results are shown as mean±SD.
Collected medium was treated with β-glucuronidase (Helix pomatia; Sigma-Aldrich), extracted with ethyl acetate:isooctane (1:1), and concentrated under nitrogen gas as described. Li et al., 523, 347-351 (2015).
Dried samples were reconstituted in 50% methanol and separated on Kinetex 100×2.1 mm, 2.6 μm particle size C18 reverse-phase column (Phenomenex, Torrance, Calif.) using a methanol/water gradient at 30° C. […] Results are shown as mean±SD.

For `C[C@]12CC[C@H](O)CC1=CC[C@@H]1[C@@H]2CC[C@]2(C)C(c3cccnc3)=CC[C@@H]12` [Abi, Abiraterone, reference compound], the Cmax [1] is listed as ~1000 nM, the “% conversion to DHEA” value (CYP17A1) is listed as 2.6% and the “mean serum concentration, cycle 3” value ([2]; Abi acetate 1000 mg daily plus prednisone alone, 16 patients) is listed as 191.2 nM. The “mean serum concentration, cycle 4” value ([2]; after addition of dutasteride 3.5 mg once daily, 16 patients) was 372.4 nM.
With `C[C@]12CC[C@H](O)C[C@@H]1CC[C@@H]1[C@@H]2CC[C@]2(C)C(c3cccnc3)=CC[C@@H]12` [Compound 3β-OH-5α-Abi, 17-(3-pyridyl)-5α-androsta-16-ene-3β-ol] the “decline in mean serum concentration after the addition of dutasteride” value ([2]; cycle 3 vs. cycle 4) was 73%.
For `CN1C(=O)CC[C@@H]2c3ccc(Cl)cc3CC[C@H]21` [LY191704], the “block of conversion of D4A to 5α-Abi and 3α-OH-5α-Abi” value (SRD5A1) was “blocks conversion”.
For `C[C@]12C=CC(=O)N[C@@H]1CC[C@@H]1[C@@H]2CC[C@]2(C)[C@@H](C(=O)Nc3cc(C(F)(F)F)ccc3C(F)(F)F)CC[C@@H]12` [dutasteride], the “block of conversion of D4A to 5α-Abi and 3α-OH-5α-Abi” value (SRD5A1) was “blocks conversion”.
For `CNC(=O)c1ccc(N2C(=S)N(c3ccc(C#N)c(C(F)(F)F)c3)C(=O)C2(C)C)cc1F` [enzalutamide, reference compound], the “effect on DHT-stimulated cell growth” value (LNCaP cells) was “more potent than Abi” and the “effect on conversion from AD to 5α-reduced androgens” value (SRD5A) was “no detectable effect”.
